Data from US20100280050A1, “Piperidinylamino-Thieno[2,3-D] Pyrimidine Compounds for Treating Fibrosis” (priority 2007, published 2010).

Tests used:
dopamine D3 receptor = dopamine D3 receptor (Homo sapiens, UniProt P35462); experiment: dopamine D3 receptor affinity; assay type: binding; details: moderate activity
σ1 receptor = σ1 receptor (Homo sapiens, UniProt Q99720); experiment: σ1 receptor binding; details: moderate binding
[1] = system: liver lesions induced by monocrotaline (MCT); experiment: monocrotaline (MCT) model, liver lesion scoring; assay type: in vivo; details: for liver lesion severity score compared to Vehicle+PBS control: p<0.05
Experimental: (§1) Compound A was assayed for effects on lung and liver lesions, as well as liver fibrosis in animals suffering from liver fibrosis induced by monocrotaline (MCT).
(§2) General Procedure: In this assay, animals were treated with MCT/vehicle, MCT with phosphate-buffered saline (PBS), or MCT with compound A. Following treatment, animals were sacrificed, and lung tissue was perfused and fixed in 10% neutral buffered formalin via the trachea. Lung and liver tissue was removed, sectioned and stained with hematoxylin-eosin. 41 liver and 41 lung slides were obtained for histologic evaluation. All slides were scored blindly without knowledge of experimental conditions. Lung and liver slides were evaluated according to the criteria listed below. Each parameter was subjectively evaluated and scored from 0-5, with 0 being no discernable lesions and 5 indicating the most severe lesions. Final scores for both the liver and lung lesions were calculated by averaging all parameters for each individual tissue.
(§3) • 1. Capsular fibrin • 2. Interlobular fibrosis • 3. Zone 1, 2, 3 necrosis • 4. Central vein, portal vein necrosis • 5. Sinusoidal spaces (hepatocytes dropout) • 6. Spaces of Disse • 7. Bile duct • 8. Bile caniliculi • 9. Kupffer cells • 10. Hepatocyte appositional surfaces • 11. Cell and nuclear size variation • 12. Cytoplasm variation

σ receptors = experiment: σ receptor functional assays (agonist activity); assay type: biochemical; details: very weak agonist
[2] = system: lung lesions induced by monocrotaline (MCT); experiment: monocrotaline (MCT) model, lung lesion scoring; assay type: in vivo
Experimental: as §1, §2
• 1. Alveolar edema • 2. Congestion • 3. Intra-alveolar hemorrhage • 4. Alveolar macrophage infiltrate • 5. Degree of erythrophagocytosis • 6. Degree of hemosiderosis • 7. Thickening of alveolar septa • 8. Type II pneumocyte hyperplasia • 9. General arterial thickening • 10. Thickening of tunica intima • 11. Thickening of tunica media • 12. Thickening of tunica adventitia • 13. Degree of perivascular edema. • 14. Perivascular inflammatory cells (lymphs and plasma cells) • 15. Increased BALT • 16. Endothelial reactivity and prominence.

[3] = system: liver fibrosis induced by monocrotaline (MCT); experiment: monocrotaline (MCT) model, hepatic fibrosis analysis; assay type: in vivo
Experimental: as §1, §2, §3
There were varying degrees of myofibroblast proliferation and collagen deposition surrounding portal tracts with occasional bridging into zones two and three. Bile duct proliferation was occasionally associated with areas of fibrosis.

[4] = system: Caspase 3/7 activity in rat activated hepatic stellate cells; experiment: Caspase-Glo 3/7 assay in rHSC; assay type: cell-based; details: FIG. 7
Experimental: Compound A was evaluated for activity in inducing Caspase 3/7 activity. Caspase 3 is involved in regulating apoptosis, and increases in Caspase 3 activity in this assay correlate to increased levels of apoptosis.
General Procedure: The assay was performed based on the following protocol: • 1. Passage rHSC at an appropriate density on a 96 well format and allow to adhere overnight. • 2. Treat cells with inhibitors for an appropriate length of time including the relevant controls. • 3. Allow both buffer and substrate to reach room temperature. • 4. Immediately prior to use, resuspend the substrate in 2.5 mL of buffer and mix thoroughly. • 5. Remove cells from incubator and allow the plates to cool to room temperature. • 6. Add Caspase-Glo® reagent at a 1:1 ratio (i.e. 100 μL to 100 μL media) and shake at 300 rpm for 30 sec. • 7. Incubate cells with Caspase-Glo® reagent for 2 h at room temperature protected from light. • 8. Transfer all media to white walled luciferase plates and determined luminescence using the MicroBeta luminometer. • 9. Caspase activity is expressed as fold-change relative to the untreated control.
Caspase-Glo® 3/7 reagent is available from Promega (Calif., USA). The Caspase-Glo® reagent contains a DEVD-caspase substrate which is selectively cleaved by caspase enzymes 3 and 7. […]

dopamine D5 receptor = dopamine D5 receptor (Homo sapiens, UniProt P21918); experiment: dopamine D5 receptor activity; assay type: binding; details: no activity
Chain of dopamine D5 receptor (P21918 whole entry): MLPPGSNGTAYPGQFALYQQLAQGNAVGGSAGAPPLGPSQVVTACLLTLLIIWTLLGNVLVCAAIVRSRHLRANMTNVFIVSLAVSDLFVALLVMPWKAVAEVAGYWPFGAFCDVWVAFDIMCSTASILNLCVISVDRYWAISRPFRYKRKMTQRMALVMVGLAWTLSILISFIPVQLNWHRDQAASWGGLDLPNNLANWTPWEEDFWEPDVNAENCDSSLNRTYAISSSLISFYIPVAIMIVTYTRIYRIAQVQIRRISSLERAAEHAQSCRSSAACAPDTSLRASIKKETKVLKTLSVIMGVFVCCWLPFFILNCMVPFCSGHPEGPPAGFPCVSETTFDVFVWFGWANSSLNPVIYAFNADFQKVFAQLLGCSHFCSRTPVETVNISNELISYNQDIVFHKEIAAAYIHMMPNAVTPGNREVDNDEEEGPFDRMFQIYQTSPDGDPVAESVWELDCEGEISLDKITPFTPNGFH

dopamine D2 receptor = dopamine D2 receptor (Homo sapiens, UniProt P14416); experiment: dopamine D2 receptor antagonism; assay type: biochemical; details: weak antagonist
Chain of dopamine D2 receptor (P14416 whole entry, species assumed): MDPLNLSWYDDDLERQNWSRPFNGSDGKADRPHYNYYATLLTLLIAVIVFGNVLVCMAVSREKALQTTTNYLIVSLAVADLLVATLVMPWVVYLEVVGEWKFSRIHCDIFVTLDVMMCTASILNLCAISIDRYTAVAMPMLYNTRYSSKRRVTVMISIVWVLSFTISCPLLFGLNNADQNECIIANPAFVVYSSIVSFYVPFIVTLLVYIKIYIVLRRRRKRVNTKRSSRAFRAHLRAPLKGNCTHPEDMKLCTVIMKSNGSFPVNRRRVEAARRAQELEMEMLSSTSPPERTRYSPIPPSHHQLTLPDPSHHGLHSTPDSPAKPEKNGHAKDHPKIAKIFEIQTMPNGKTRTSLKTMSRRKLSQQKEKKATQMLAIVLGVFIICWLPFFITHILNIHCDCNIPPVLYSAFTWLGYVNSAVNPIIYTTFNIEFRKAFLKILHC

σ2 receptor = σ2 receptor (Homo sapiens, UniProt Q5BJF2); experiment: σ2 receptor binding; details: moderate binding
Chain of σ2 receptor (Q5BJF2 whole entry): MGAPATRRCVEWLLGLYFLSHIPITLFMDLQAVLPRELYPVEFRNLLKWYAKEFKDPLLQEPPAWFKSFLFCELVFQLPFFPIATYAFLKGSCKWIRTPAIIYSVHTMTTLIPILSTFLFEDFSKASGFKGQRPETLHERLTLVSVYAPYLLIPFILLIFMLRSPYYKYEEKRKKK

[5] = biological target: more than 51 receptors including GPCRs, ion channels and receptor tyrosine kinases; experiment: panel of more than 51 receptors; assay type: binding; details: almost no affinity, read-out: Ki, more than 51 receptors tested
[6] = system: all other 5-HT receptor subtypes; experiment: affinity for the other 5-HT receptor subtypes; assay type: binding; details: 5-HT2B versus all other 5-HT subtypes, except 5-HT1A
dopamine D1 receptor = dopamine D1 receptor (Homo sapiens, UniProt P21728); experiment: dopamine D1 receptor activity; assay type: binding; details: no activity
Chain of dopamine D1 receptor (P21728 whole entry): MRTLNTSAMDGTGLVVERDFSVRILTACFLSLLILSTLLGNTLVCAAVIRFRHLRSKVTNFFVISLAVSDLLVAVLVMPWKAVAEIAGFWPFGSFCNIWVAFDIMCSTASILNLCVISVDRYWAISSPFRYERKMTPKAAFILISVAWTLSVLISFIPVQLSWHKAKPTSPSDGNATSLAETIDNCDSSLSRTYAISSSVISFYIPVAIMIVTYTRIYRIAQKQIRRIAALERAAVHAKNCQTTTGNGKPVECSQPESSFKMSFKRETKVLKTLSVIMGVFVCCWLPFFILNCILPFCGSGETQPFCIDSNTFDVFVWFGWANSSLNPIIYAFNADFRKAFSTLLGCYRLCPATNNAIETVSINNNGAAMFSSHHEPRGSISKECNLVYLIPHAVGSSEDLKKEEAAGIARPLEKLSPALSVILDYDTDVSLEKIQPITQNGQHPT

[7] = system: rat activated hepatic myofibroblasts; experiment: acridine orange assay for morphological assessment of apoptosis; assay type: cell-based; details: 1 μM dose
Experimental: The compound 5-((4-(6-chlorothieno[2,3-d]pyrimidin-4-ylamino)piperidin-1-yl)methyl)-2-fluorobenzonitrile (hereinafter “compound A”), was evaluated for activity in promoting apoptosis of rodent and human activated hepatic myofibroblasts. The activity of compound A was compared against untreated cells, cells treated with dimethylsulfoxide, and cells treated with spiperone. Spiperone is a nonselective 5-HT2B antagonist. In the acridine orange assay for morphological assessment of apoptosis, compound A dose-dependently promotes elevated rates of apoptosis of rat activated hepatic myofibroblasts (40% of cells apoptotic with 1 μM dose). The results of the acridine orange assay are depicted in FIGS. 1-4.

[8] = system: human activated hepatic myofibroblasts (primary activated hepatic stellate cells); experiment: apoptosis of human activated hepatic myofibroblasts; assay type: cell-based; details: overnight incubation
Experimental: Compound A was tested on human activated hepatic myofibroblasts. The tested human cells were primary activated hepatic stellate cells isolated from normal human liver resected during removal of adjacent tumour tissue in patients with primary liver cancer. The cells were then cultured on plastic in full media and passaged at least 4 times to generate pure activated activated hepatic stellate cells, representing the major fibrogenic cell of the liver.

Chain of σ1 receptor (Q99720 whole entry): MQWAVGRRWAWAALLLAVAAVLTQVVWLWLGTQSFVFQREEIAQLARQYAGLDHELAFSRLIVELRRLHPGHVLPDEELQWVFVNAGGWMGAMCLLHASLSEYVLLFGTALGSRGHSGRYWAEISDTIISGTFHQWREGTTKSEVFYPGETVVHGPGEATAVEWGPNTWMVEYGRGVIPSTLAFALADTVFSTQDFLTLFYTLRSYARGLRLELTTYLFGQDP
Chain of dopamine D3 receptor (P35462 whole entry, species assumed): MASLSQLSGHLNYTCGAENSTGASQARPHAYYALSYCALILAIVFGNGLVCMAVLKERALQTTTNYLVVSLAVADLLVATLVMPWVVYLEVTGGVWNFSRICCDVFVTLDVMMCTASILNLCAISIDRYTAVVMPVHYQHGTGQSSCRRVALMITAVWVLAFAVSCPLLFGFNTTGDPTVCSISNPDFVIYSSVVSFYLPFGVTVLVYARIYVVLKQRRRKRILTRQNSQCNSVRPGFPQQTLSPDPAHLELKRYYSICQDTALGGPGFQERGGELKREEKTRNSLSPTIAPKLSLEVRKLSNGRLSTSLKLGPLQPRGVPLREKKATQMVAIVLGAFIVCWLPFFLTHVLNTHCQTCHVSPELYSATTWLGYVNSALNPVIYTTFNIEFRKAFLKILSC

## N#Cc1cc(CN2CCC(Nc3ncnc4sc(Cl)cc34)CC2)ccc1F [compound A, 5-((4-(6-Chlorothieno[2,3-d]pyrimidin-4-ylamino)piperidin-1-yl)methyl)-2-fluorobenzonitrile]
Dopamine D3 receptor
  Ki: ~310 nM
σ1 receptor
  Ki: 100 nM
[1]; 50 mg/kg + MCT
  liver lesion severity score compared to Vehicle+PBS control: significant increase
[1]; 100 mg/kg + MCT
  liver lesion severity score compared to Vehicle+PBS control: significant increase
[1]; MCT + 50 mg/kg, Part B compared to Part A (vehicle + MCT)
  periportal necrosis, histology (FIG. 11): slightly reduced
[1]; MCT + 100 mg/kg, Part C
  periportal necrosis, histology (FIG. 11): further reduction of periportal necrosis
[1]; groups receiving 50 mg/kg and 100 mg/kg
  sinusoidal cells with small, condensed nuclei (may represent apoptotic stellate cells): Moderate numbers
σ receptors
  EC50: ~10000 nM
[2]; 50 mg/kg + MCT, p=0.09
  lung lesion score versus Vehicle+MCT group: lower lesion score
[2]; 100 mg/kg + MCT, p<0.01, similar to Vehicle+PBS group
  lung lesion score versus Vehicle+MCT group: reduced in severity
[2]; MCT + 50 mg/kg, Part B
  MCT-induced pulmonary lesion, histology (FIG. 11): improvement of MCT-induced pulmonary lesion
[2]; MCT + 100 mg/kg, Part C, compared to Part B
  MCT-induced pulmonary lesions, histology (FIG. 11): further reduction of MCT-induced pulmonary lesions
[3]; monocrotaline + 50 mg/kg
  degree of periportal fibrosis: minimal to mild fibrosis
[3]; monocrotaline + 50 mg/kg, 4 out of 8 livers
  livers with periportal fibrosis: 50%
[3]; monocrotaline + 100 mg/kg
  degree of periportal fibrosis: negligible-very minimal (1 small triad) fibrosis
[3]; monocrotaline + 100 mg/kg, 1 out of 13 livers
  livers with periportal fibrosis: 7%
[4]
  Caspase activity (fold-change relative to the untreated control): increased Caspase activity in a time-dependent fashion
Dopamine D5 receptor
  Ki: > 5000 nM
Dopamine D2 receptor
  IC50: 670 nM
σ2 receptor
  Ki: 110 nM
[5]
  Ki: > 1000 nM
[6]
  differences in receptor affinities compared with all other 5-HT receptor subtypes: more than 500 fold
Dopamine D1 receptor
  Ki: > 5000 nM
[7]
  cells apoptotic: 40%
[8]; 1 μM
  apoptosis: 20%
[8]; 100 μM
  apoptosis: 60%
